The record followed here is BindingDB's records for doi:10.1016/j.bmc.2020.115928 (Tu Dresden, 2021).

This test is described as follows: Inhibition of rabbit skeletal muscle myosin-2 ATPase incubated for 20 mins followed by ATP addition and measured after 20 mins.

One may read the IC50 as the concentration that inhibits the measured activity by half.

With `Oc1c(Br)cc(Br)cc1-c1[nH]c(Br)c(Br)c1Br` [pentabromopseudilin], the IC50 was determined as 5.1 µM.
